The values below come from patent publication US12208159B2, “Compositions, methods and kits for treating a contact lens” (University of Houston System, priority 2016, dated 2025).

The term IC50 denotes the concentration that inhibits the measured activity by half. Read a low IC50 as greater potency.

Where “and” joins values, the source holds several entries; their conditions need not be identical. Equal entries are not always repeated.

Data set [1] concerns human telomerase corneal epithelial cells (hTCEpi). It is filed as cell-based. On the procedure:
Telomerase modified human corneal epithelial cells were seeded into wells of a 96 well plate with […] KGM-2 medium (Lonza Ltd, Switzerland) and incubated at 37° C. until ˜80% confluence. […] Cells treated with 0.05% benzalkonium chloride (BAC) and without any treatment served as controls. The plate was incubated at 37° C. for 18 h, and cell viability was determined using a cell counting kit-8 assay. […] All lenses are taken out, and cell viability was determined using a cell counting kit-8 assay (Dojindo Molecular Technologies, Inc. Japan).

A short description of data set [2]: Loading of molecules into commercial contact lenses (Comfilcon A). It counts as physicochemical. On the procedure: (§1) Briefly, commercial lenses are individually immersed in wells of a 24 well plate, each containing 1 mL PBS solution of FITC-F ([…]), FITC ([…]), Cip (100 mM) or F-Cip (100 mM), and incubated for 18 h. Then the lenses are washed with PBS three times for 5 min each. All incubation and wash solutions are collected and the amount of each compound is quantified by spectrophotometry. Standard curves are generated with seven standard samples with known concentrations for each individual compound of interest. Specifically, fluorescent compounds FITC and FITC-F are quantified by fluorescence emission at 520 nm (lex. 485 nm), and Cip and F-Cip are quantified by absorbance at 275 nm. The amount of each compound in the above collected solutions is then measured with the standard curve. The amount of the compound incorporated into lenses was determined by subtracting the amount in solution from the total amount added initially.
(§2) Commercial lenses of the above 4 types were removed from blister packs, and blotted gently to remove excess solution. Contact lenses were placed individually into glass vials and immersed in 1 mL of FITC-C8F15 or FITC solution (15.6 μM in phosphate buffered saline) for 24 hours at room temperature. At the end of incubation, lenses were washed three times using phosphate buffered saline. […]

Data set [3] in a line: Lens transparency after modification (light transmission). The following applies: Comfilcon A lenses embedded with the compound.
The nature of data set [4]: Time course release of individual compounds from contact lenses. The following applies: Comfilcon A. It counts as physicochemical. On the procedure:
The modified Comfilcon A lenses are placed into individual wells of a 24 well plate with 1 mL PBS in each well at room temperature. The PBS solution is replaced with fresh PBS every hour for up to 8 h or 15 h, or every 10 min for 2 h or 6 h. The amount of fluorescent compound released into the collected PBS aliquots is quantified spectrophotometrically based on the above standard curve. The amount of F-Cip released into the collected PBS aliquots is quantified using LC-MS (LCQ Deca XP plus with Surveyor LC, Thermo Fisher, Waltham, MA) with electrospray ionization in positive ion mode. Samples ([…] each) are loaded onto the analytical column at […] (Kinetex XB-C18, 2.×50 mm, […], Phenomenex) with the following gradient: 0-3 min, 10-75% (B); 3-7.5 min, 75-91% (B). The mobile phase consists of (A) water containing 0.1% formic acid and (B) acetonitrile containing 0.1% formic acid. Mass spectrometric parameters are as follows: 250° C. capillary temperature, 45 units sheath gas, 10 units aux gas and 4.5 kV spray voltage. […]

For data set [5], the system named is P. aeruginosa 19660. Nature of the data set: Ex vivo porcine eye infection model, antimicrobial activity of loaded contact lenses. Set-up: species or system Pseudomonas aeruginosa (porcine eyes). To be noted: Comfilcon A lenses modified with the compound, on infected scratched porcine eyes, 12 h.
Description: Upon arrival, eyelids and connective tissues are removed and the porcine eyes are sanitized using 5% penicillin/streptomycin (Sigma-Aldrich, St. Louis, MO) for 1 h followed by washing thrice with PBS. Six scratch wounds with a 3×3 crosshatch pattern of length about 1 cm are created on each cornea using a 27G needle. The eyes are placed into holders and 100 ml of bacterial solution containing 10^6 CFU (see “Antibacterial activity of F-Cip” section discussed above) applied to each cornea. The eyes are left at room temperature in a biosafety cabinet for 5 h. After rinsing with 10 mL of PBS, control and modified Comfilcon A contact lenses are placed individually onto the eyes. […] One eye without scratches but incubated with bacteria served as an additional control. A custom-made apparatus is used to flow culture medium over the surface of the porcine eyes. […] Then 100 ml of the bacterial suspension from each sample was taken out and added into a 96-well plate in triplicate, and absorbance at 620 nm was measured and plotted as percentage of bacterial growth inhibition compared to the corneas infected with bacteria but without any treatments. […]
In data set [6] the test system is P. aeruginosa 19660. In words: In vitro antimicrobial activity of F-Cip-loaded Comfilcon A contact lenses. It is filed as cell-based, Pseudomonas aeruginosa. To be noted: Comfilcon A lenses loaded with the compound.
Data set [7] has as its system Pseudomonas aeruginosa (PA) ATCC 19660. Nature of the data set: Antibacterial activity of F-Cip (growth inhibition, absorbance at 620 nm). It is filed as cell-based. To be noted: ATCC19660, P. aeruginosa ATCC 19660, 18 h at 37° C., n > 3. On the procedure:
The strain is inoculated and grown at 37° C. for 18 h. The bacterial suspension ([…]) is added into 100 mL of nutrient broth and incubated for 2 h to reach a log growth phase. The resulting bacterial suspension is adjusted to a concentration of ˜10^7 cfu/mL and […] are placed into each well of a 96 well plate. Fifty microliters of F-Cip solution are added into the 96 well plate and incubated at 37° C. for 18 h. The inhibition of microbial growth is determined by measuring the absorbance at 620 nm.

The nature of data set [8]: Loading of molecules into commercial contact lenses (Lotrafilcon B). It counts as physicochemical. The following applies: 24 hours at room temperature, listed as FITC-C8F15. On the procedure: as §1, §2

Turning to “Benzalkonium chloride [Benzalkonium chloride (BAC)]”, the cells killed entry in data set [1] is “about 100%”.

In the case of `O=C(O)c1cn(C2CC2)c2cc(N3CCNCC3)c(F)cc2c1=O` [Compound 12, Ciprofloxacin], the “amount loaded onto lens” value in data set [2] (Comfilcon A lenses, incubated 18 h in PBS solution) worked out at 3.56±4.51 nmol/lens. The “transmission profile compared with fresh unmodified lens” value in data set [3] (between 200 nm and 800 nm) was “significantly overlap”. Also, in data set [3] (between 400 nm and 750 nm), the “Transmission of modified lenses” value is given as “about 100%”. Further, in data set [4] (solution exchange rate 1 mL/h), the release at plateau is approximately 60%, the release profile entry is listed as “typical burst release profile” and the “time to reach release plateau (no more release)” value is on record as 3 h. This molecule had a bacterial growth inhibition with P. aeruginosa 19660 [5] of 37.5±8.2%. Also, the growth inhibition with P. aeruginosa 19660 [6] is recorded as 35.2%. Further, inhibition in data set [7] was half-maximal at 0.13 ± 0.035 µM (IC50).

On to fluorescein isothiocyanate [Compound 7], for which, in data set [4] (solution exchange rate 1 mL/h), the release at plateau is approximately 60%, the release profile result is “typical burst release profile” and the “time to reach release plateau (no more release)” value is given as not above 2 h. In addition, the “time to reach release plateau” value in data set [4] (solution exchange rate 6 mL/h) was not above 50 min.

Take `O=C(O)c1cc(NC(=S)NCC(F)(F)C(F)(F)C(F)(F)C(F)(F)C(F)(F)C(F)(F)C(F)(F)F)ccc1-c1c2ccc(=O)cc-2oc2cc(O)ccc12` [Compound 6]: the “amount attached relative to the amount of FITC attached” value in data set [2] (Comfilcon A, 24 hours at room temperature, listed as FITC-C8F15) is 11 times and 9 times. Moreover, the “amount attached relative to the amount of FITC attached” value in data set [8] was 6.5 times and 5 times. In addition, in data set [4] (solution exchange rate 1 mL/h), the “duration of nearly linear release” value is 6 h, the release profile entry was “sustained profile” and the release rate is 10.5 % per hour. Further, the “release reached at 15 h” value in data set [4] (solution exchange rate 1 mL/h, 15 h) was approximately 90%. Also, in data set [4] (solution exchange rate 6 mL/h), the “duration of sustained linear release” value is recorded as 120 min, the release rate was found to be 26.5 % per hour and the “time to reach release plateau” value is reported as 270 min.
